# Reference: PubChem BioAssay AID1845203 (Molecular Pharmacology Branch, DTP, NCI, 2023)
# “And” between values parts separate entries of the source, which are not always exact repeats. Equal values may be shown once.
# Test system: G-401 tumor spheroids, viability % test/control
# Assay: Anticancer human tumor G-401 cell line growth inhibition;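 further: spheroids exposed to compound for 7 days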;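 on viability, T/C: 100% = DMSO vehicle-treated spheroids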
# Conditions: spheroids with HUVEC and MSC; for viability, T/C: stronger effect = lower value
# Procedure, shortened: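 Complex spheroids of malignant cells with endothelial cells and mesenchymal stem cells; agents alone or combined, from near clinical Cmax (or 10 microM if unknown) down in half-log steps, 0.25% DMSO final.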
smiles,measurement,setting,value
Cc1cc(C)c(CNC(=O)c2cc(-c3ccc(CN4CCOCC4)cc3)cc3c2cnn3C2CCCC2)c(=O)[nH]1 + COc1cc2c(cc1O)CCNC21CSC2c3c(OC(C)=O)c(C)c4c(c3C(COC1=O)N1C(O)C3Cc5cc(C)c(OC)c(O)c5C(C21)N3C)OCO4,IC50,"curve of first compound, second compound 30 pM",> 10 µM
same,IC50,"curve of first compound, second compound 94.9 pM",7.07 µM
same,IC50,"curve of first compound, second compound 0.0003 µM",< 0.0316 µM
same,IC50,"curve of first compound, second compound 0.000949 µM",< 0.0316 µM
same,IC50,"curve of first compound, second compound 0.003 µM",< 0.0316 µM
same,"viability, T/C","second compound 30 pM, first compound 0.0316 µM",107%
same,"viability, T/C","second compound 30 pM, first compound 0.1 µM",109%
same,"viability, T/C","second compound 30 pM, first compound 0.316 µM",111%
same,"viability, T/C","second compound 30 pM, first compound 1 µM",119%
same,"viability, T/C","second compound 30 pM, first compound 3.16 µM",97.7%
same,"viability, T/C","second compound 30 pM, first compound 10 µM",53.9%
same,"viability, T/C","second compound 94.9 pM, first compound 0.0316 µM",93.3%
same,"viability, T/C","second compound 94.9 pM, first compound 0.1 µM",110%
same,"viability, T/C","second compound 94.9 pM, first compound 0.316 µM",106%
same,"viability, T/C","second compound 94.9 pM, first compound 1 µM",107%
same,"viability, T/C","second compound 94.9 pM, first compound 3.16 µM",81%
same,"viability, T/C","second compound 94.9 pM, first compound 10 µM",36.6%
same,"viability, T/C","second compound 0.0003 µM, first compound 0.0316 µM",43.3%
same,"viability, T/C","second compound 0.0003 µM, first compound 0.1 µM",46.5%
same,"viability, T/C","second compound 0.0003 µM, first compound 0.316 µM",37.9%
same,"viability, T/C","second compound 0.0003 µM, first compound 1 µM",30%
same,"viability, T/C","second compound 0.0003 µM, first compound 3.16 µM",25.2%
same,"viability, T/C","second compound 0.0003 µM, first compound 10 µM",17.4%
same,"viability, T/C","second compound 0.000949 µM, first compound 0.0316 µM",9.71%
same,"viability, T/C","second compound 0.000949 µM, first compound 0.1 µM",9.04%
same,"viability, T/C","second compound 0.000949 µM, first compound 0.316 µM",6.87%
same,"viability, T/C","second compound 0.000949 µM, first compound 1 µM",6.92%
same,"viability, T/C","second compound 0.000949 µM, first compound 3.16 µM",6.27%
same,"viability, T/C","second compound 0.000949 µM, first compound 10 µM",4.18%
same,"viability, T/C","second compound 0.003 µM, first compound 0.0316 µM",11.6%
same,"viability, T/C","second compound 0.003 µM, first compound 0.1 µM",0.13%
same,"viability, T/C","second compound 0.003 µM, first compound 0.316 µM",0.27%
same,"viability, T/C","second compound 0.003 µM, first compound 1 µM",0.15%
same,"viability, T/C","second compound 0.003 µM, first compound 3.16 µM",0.54%
same,"viability, T/C","second compound 0.003 µM, first compound 10 µM",0.2%
CC1COCCN1c1cc(-c2ccnn2C)c2ccnc(-c3ccn[nH]3)c2n1 (centres undefined),"viability, T/C",compound 0.0316 µM,67% and 79% and 90.9%
same,"viability, T/C",compound 0.1 µM,34.7% and 42.4% and 56%
same,"viability, T/C",compound 0.316 µM,19.1% and 24.4% and 31.2%
same,"viability, T/C",compound 1 µM,13.1% and 17.3% and 18.1%
same,"viability, T/C",compound 3.16 µM,16.2% and 18.7% and 19.8%
same,"viability, T/C",compound 10 µM,18.1% and 20.2% and 22.3%
same,IC50,curve of compound,0.058 µM and 0.079 µM and 0.132 µM
O=C(c1cc(Cc2n[nH]c(=O)c3ccccc23)ccc1F)N1CCN(C(=O)C2CC2)CC1,"viability, T/C",compound 0.0949 µM,98.3% and 98.6% and 96.5%
same,"viability, T/C",compound 0.3 µM,97.5% and 84.9% and 91.2%
same,"viability, T/C",compound 0.949 µM,96.1% and 86.9% and 105%
same,"viability, T/C",compound 3 µM,83.7% and 82.5% and 87%
same,"viability, T/C",compound 9.49 µM,54.9% and 49.4% and 58.5%
same,"viability, T/C",compound 30 µM,40.1% and 28.5% and 34.9%
same,IC50,curve of compound,13.9 µM and 9.39 µM and 14.2 µM
